Results on 1 compound are retold here after ChEMBL document CHEMBL1146810, “Synthesis of a bromotyrosine-derived natural product inhibitor of mycothiol-S-conjugate amidase” (Bioorg Med Chem Lett, 2004).

A short description of assay [1]: Inhibitory activity against AcGI deacetylase was determined.
In assay [2] the test system is Mycobacterium tuberculosis. Kind of assay: Inhibitory activity against mycothiol-S-conjugate amidase (MCA) was determined.

As for `NCCCOc1c(Br)cc(C/C(=N\O)C(=O)NCCCCN=C(N)N)cc1Br`, the figures for the Inhibition in assay [1] and in assay [2] were 150 µM and 30 µM, respectively.
